The values that follow come from patent US10906896B2, “Compositions and methods for inhibiting kinases” (Inhibikase Therapeutics, Inc., priority 2015, dated 2021).

Where only a bound is given, the exact number is not on record here.

Test [1] has as its system Ba/F3 cells harboring BCR-ABL Y253H. Briefly: Ba/F3 proliferation, BCR-ABL Y253H. The test is classed as cell-based. The settings on record: 48 hrs, IL-3 withdrawn. Here is the method: (§1) IL-3 was subsequently withdrawn from these populations.
(§2) Final concentrations of each compound were 10 μM, 1 μM, 100 nM, 10 nM, 1 nM, 0.1 nM, 0 nM (plus a blank-media only).

Test [2] has as its system Ba/F3 cells harboring BCR-ABL E255K. Briefly: Ba/F3 proliferation, BCR-ABL E255K. The test is classed as cell-based. The settings on record: 48 hrs, IL-3 withdrawn.
The subject of test [3] is Ba/F3 cells harboring BCR-ABL E255V. Briefly: Ba/F3 proliferation, BCR-ABL E255V. The test is classed as cell-based. Particulars: 48 hrs, IL-3 withdrawn. As for the experimental part:
as §1, §2

In test [4] the test system is Ba/F3 cells harboring BCR-ABL T315I. Briefly: Ba/F3 proliferation, BCR-ABL T315I. The class given is cell-based. The settings on record: 48 hrs, IL-3 withdrawn. As for the experimental part: as §1, §2
In test [5] the test system is untransduced Ba/F3 cells grown in the presence of IL-3. Briefly: Ba/F3 proliferation, parental cells (Cell Titer Glo). The test is classed as cell-based. Particulars: 48 hrs, with IL-3. As for the experimental part: as §1, §2
For test [6], the system named is Ba/F3 cells harboring BCR-ABL F359V. Briefly: Ba/F3 proliferation, BCR-ABL F359V. The class given is cell-based. Particulars: 48 hrs, IL-3 withdrawn.
Test [7] concerns JCV laboratory strain MAD-1. Briefly: JCV antiviral potency in Cos 7 cells. The class given is cell-based, JC polyomavirus (JCV).
In the next test the target is c-Abl1 (Homo sapiens (Human), UniProt P00519). Briefly: c-Abl1 IC50 (FAM-labeled peptide kinase assay). The test is classed as biochemical.
Chain of c-Abl1 (P00519 whole entry): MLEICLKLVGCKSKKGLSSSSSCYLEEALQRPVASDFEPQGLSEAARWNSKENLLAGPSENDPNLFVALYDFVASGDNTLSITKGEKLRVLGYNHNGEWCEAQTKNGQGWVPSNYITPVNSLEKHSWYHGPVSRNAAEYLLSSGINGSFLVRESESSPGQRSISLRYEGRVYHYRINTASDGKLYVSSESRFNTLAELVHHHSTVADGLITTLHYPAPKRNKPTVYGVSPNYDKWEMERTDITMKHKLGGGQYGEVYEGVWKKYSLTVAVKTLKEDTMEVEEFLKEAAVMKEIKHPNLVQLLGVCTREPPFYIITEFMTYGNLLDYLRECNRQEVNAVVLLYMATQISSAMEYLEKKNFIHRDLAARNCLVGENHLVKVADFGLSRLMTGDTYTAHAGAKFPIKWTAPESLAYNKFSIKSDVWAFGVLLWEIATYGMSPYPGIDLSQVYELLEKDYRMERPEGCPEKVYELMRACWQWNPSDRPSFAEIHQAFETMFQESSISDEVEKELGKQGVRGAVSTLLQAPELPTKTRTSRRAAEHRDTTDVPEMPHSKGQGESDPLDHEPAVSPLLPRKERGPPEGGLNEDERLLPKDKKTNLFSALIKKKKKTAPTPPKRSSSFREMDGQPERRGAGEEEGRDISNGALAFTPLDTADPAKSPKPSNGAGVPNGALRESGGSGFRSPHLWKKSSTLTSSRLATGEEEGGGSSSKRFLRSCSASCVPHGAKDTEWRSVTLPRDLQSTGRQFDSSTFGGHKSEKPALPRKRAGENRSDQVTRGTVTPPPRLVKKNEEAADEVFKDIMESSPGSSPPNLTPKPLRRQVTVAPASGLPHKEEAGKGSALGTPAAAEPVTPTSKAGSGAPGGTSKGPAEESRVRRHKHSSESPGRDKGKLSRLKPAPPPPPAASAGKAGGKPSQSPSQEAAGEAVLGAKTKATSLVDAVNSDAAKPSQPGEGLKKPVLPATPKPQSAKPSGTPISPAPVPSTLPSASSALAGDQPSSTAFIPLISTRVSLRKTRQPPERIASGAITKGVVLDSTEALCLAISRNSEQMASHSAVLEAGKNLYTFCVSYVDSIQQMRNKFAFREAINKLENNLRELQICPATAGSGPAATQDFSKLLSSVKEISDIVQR
A further test concerns BCR-ABL. The settings on record: cited from earlier work.

Protocol for c-Abl1: Measurement of c-Abl1, c-Abl2 and c-Kit IC50 Values
For the assay of enzyme inhibitions, 5 μl of each well from the intermediate plate is transferred to a 384-well plate in duplicates, 10. […] Then enzyme substrate is added as 10 μl of 2.5×FAM-labeled peptide+ATP solution to each well of the 384-well assay plate. The reaction is allowed to proceed at 28° C. and quenched with the addition of 25 μl of stop buffer. The release of fluorescent FAM is quantitated as Percent inhibition=(max−conversion)/(max−min)*100. ? “max” stands for DMSO control; “min” stands for low control. Data are fit in XLFit excel add-in version 4.3.1 to obtain IC50 values. Equation used is: Y=Bottom+(Top−Bottom)/(1+(IC50/X)^HillSlope)

Consider `Cc1cc(NC(=O)C2=NN=C(c3cncc(-c4ccnc(Nc5cc(NC(=O)c6ccc(CN7CCN(C)CC7)cc6)ccc5C)n4)c3)C2)ccn1` [Compound 103], for which the 50% inhibitory concentration (IC50) (in general, the point on the concentration scale where inhibition reaches its midpoint) was determined as 2590 nM in test [1]; 196 nM in [2]; 1200 nM in [3]; 2910 nM in [4]; 2920 nM in test [5]; 135 nM in test [6].

As to `Cc1cc(NC(=O)C2=NN=C(c3cncc(-c4ccnc(Nc5cc(NC(=O)c6ccc(CN7CCN(C)CC7)cc6)ccc5C)n4)c3)C2)[nH]n1` [Compound 113], the IC50 in test [1] worked out at 1430 nM; in [2], 46.9 nM; in test [3], 739 nM; in [4] it was 2120 nM; in test [5], 2060 nM; in test [6] it was 161 nM.

Regarding `Cc1ccc(NC(=O)c2ccc(CN3CCN(C)CC3)cc2)cc1Nc1nccc(-c2cncc(C3=NN=C(C(=O)Nc4cn[nH]c4)C3)c2)n1` [Compound 118], the “antiviral activity against JCV” value in test [7] is recorded as “little antiviral activity”.

As to `Cc1ccc(-c2cncc(-c3ccnc(Nc4cc(NC(=O)c5ccc(CN6CCN(C)CC6)cc5)ccc4C)n3)c2)nc1` [Compound 820], the half-maximal inhibitory concentration (IC50) in test [2] was 204 nM; in test [3], 2670 nM; in [4], 2300 nM; in [5], 2480 nM; in test [6] it was 260 nM.

Turning to `Cc1ccc(NC(=O)c2ccc(CN3CCN(C)CC3)cc2)cc1Nc1nccc(-c2cncc(-c3ccn(C)n3)c2)n1` [Compound 832], the IC50 was 90.9 nM in [2]; 661 nM in test [3]; 2590 nM in test [4]; 2480 nM in [5]; 46.7 nM in test [6].

On to `Cc1cc(-c2cncc(-c3ccnc(Nc4cc(NC(=O)c5ccc(CN6CCN(C)CC6)cc5)ccc4C)n3)c2)sn1` [Compound 8190], for which the half-maximal inhibitory concentration (IC50) in test [2] turned out to be 390 nM; in test [3], 997 nM; in test [4], 2680 nM; in test [5], 2240 nM; in test [6] it was 236 nM.

With `Cc1ccc(NC(=O)c2ccc(CN3CCN(C)CC3)cc2)cc1Nc1nccc(-c2cncc(-c3snnc3C)c2)n1` [Compound 8240], the 50% inhibitory concentration (IC50) against c-Abl1 is above 1000 nM.

Take `Cc1ccc(NC(=O)c2ccc(CN3CCN(C)CC3)cc2)cc1Nc1nccc(-c2cncc(-c3nccs3)c2)n1` [Compound 8270]: the IC50 in test [2] amounted to 45.9 nM; in test [3], 1030 nM; in test [4] it was 2790 nM; in [5] it was 2520 nM; in test [6], 203 nM.

In the case of `Cc1cnc(-c2cncc(-c3ccnc(Nc4cc(NC(=O)c5ccc(CN6CCN(C)CC6)cc5)ccc4C)n3)c2)s1` [Compound 8280], the IC50 worked out at 234 nM in test [2]; 2390 nM in [3]; 2770 nM in test [4]; 2610 nM in test [5]; 251 nM in [6].

Consider `Cc1csc(-c2cncc(-c3ccnc(Nc4cc(NC(=O)c5ccc(CN6CCN(C)CC6)cc5)ccc4C)n3)c2)n1` [Compound 8290], for which the IC50 in test [2] stood at 80.4 nM; in test [3], 1440 nM; in [4], 2480 nM; in test [5], 2580 nM; in test [6], 375 nM.

For `Cc1cn(-c2cc(NC(=O)c3ccc(C)c(Nc4nccc(-c5cccnc5)n4)c3)cc(C(F)(F)F)c2)cn1` [Tasigna, nilotinib], in the test with BCR-ABL, the “potency as an inhibitor of BCR-ABL relative to Gleevec” value is on record as at most 20 ×.
